# Tests used:
# [1] = test system: B16F-10 melanoma lung metastasis; conditions: cited from earlier work
# [2] = test system: MCF-7 human breast cancer cells; assay: Cell growth experiment: inhibition of proliferation of MCF-7 cells (viable cell count after 72 hours); type: cell-based
# Procedure: Stock solution of TRF and curcumin was prepared in dimethyl sulfoxide (DMSO) at a concentration of 10 mg/mL. For cell growth experiments (as described below), treatments of TRF and curcumin were diluted in phenol red-free RPMI 1640 medium supplemented with 5% dextran-charcoal-treated […]) to final concentrations of 1-100 μM in test medium. MCF-7 cells were suspended from T75 flask by treatment of trypsin to an equal volume of phenol red free RPMI 1640 medium supplemented with 5% dextran-charcoal treated […]), 1% penicillin-streptomycin, 1% L-glutamine and counted on a haemocytometer. Cells were added to the required volume of phenol red free RPMI medium supplemented with 5% dextran-charcoal treated […]), 1% penicillin-streptomycin, 1% L-glutamine. […] MCF-7 cells were seeded in each well of 24-well tissue culture dishes. […] Cell proliferation was measured by using an automated particle counter, Beckman Coulter Particle Counter. […] The nuclei released were counted in isoton on a Coulter particle counter. […] The IC50 value was calculated as an average of three generated value of each replicates. Comparisons between means of six groups were assessed for significance. […]
# [3] = test system: PC-3, a prostate cancer cell; conditions: PC-3 prostate cancer cell; cited from earlier work
# [4] = test system: vascular cell adhesion molecule-1 (VCAM-1) expression; THP-1 adhesion to HUVECs; conditions: suppression of VCAM-1 expression and THP-1 adhesion to HUVECs; cited from earlier work
compound,measurement,setting,value
COc1cc(/C=C/C(=O)CC(=O)/C=C/c2ccc(O)c(OC)c2)ccc1O [Curcumin],Increase of life span of the animals,[1]; mice treated with curcumin,143.85%
same,Reduction of the number of lung tumor nodules,"[1]; oral administration, 200 nmol/kg body weight, mice",80%
same,IC50,"[2]; Homo sapiens, MCF7, MCF-7 cells, 72 hours, 10^-8 M estradiol, test compounds 1-100 μM, combinations with 1 μM of the second ingredient",25.3 µM
same,Effect of curcumin on the anti-proliferative effect of tocotrienols,[2]; estrogen-positive MCF-7 human breast cancer cells in vitro,synergistically enhanced the anti-proliferative effect of tocotrienols
Cc1c(C)c2c(c(C)c1O)CC[C@@](C)(CCC[C@H](C)CCC[C@H](C)CCCC(C)C)O2 [α-tocopherol],Effect on proliferation of PC-3,[3],no significant effects
CC(C)=CCC/C(C)=C/CC/C(C)=C/CC[C@]1(C)CCc2c(C)c(O)c(C)c(C)c2O1 [α-tocotrienol],Efficacy relative to α-tocopherol,[4],10 fold
CC(C)=CCC/C(C)=C/CC/C(C)=C/CC[C@]1(C)CCc2cc(O)c(C)c(C)c2O1 [γ-tocotrienol],Effect on proliferation of PC-3,[3],inhibit the proliferation
CC(C)=CCC/C(C)=C/CC/C(C)=C/CC[C@]1(C)CCc2cc(O)cc(C)c2O1 [δ-tocotrienol],Effect on proliferation of PC-3,[3],inhibit the proliferation
